The subject of data set [1] is p53-deficient cancer cell lines. Kind of data set: Cytotoxicity assay, p53-deficient (p53mt) cancer cell lines. It counts as cell-based, human. As to the method: (§1) Cells were plated at a density of 5,000 cells/well in a 96 well-plate and then treated with the appropriate drugs at varying concentrations for 24 hours. Media was replenished with media with or without PARP inhibitors and cell were incubated for 96 hours. Cells were stained with 1% Methylene Blue for 30 minutes, rinsed with water, dried and then solubilized in 5% SDS in PBS, and read at 650 nm. IC50 values were generated using GraphPad Prism8 (Version 8.4.2).
(§2) Cytotoxicity Assay: Cells were plated at a density of 5,000 cells/well in a 96 well-plate and then treated with the appropriate drugs at varying concentrations for 24 hours. Media was replenished with media with or without PARP inhibitors and cell were incubated for 96 hours. Cells were stained with 1% Methylene Blue for 30 minutes, rinsed with water, dried and then solubilized in 5% SDS in PBS, and read at 650 nm. IC50 values were generated using GraphPad Prism8 (Version 8.4.2).

Data set [2] relates to γH2AX in p53mt MDA-MB-231 cells. Kind of data set: DNA damage marker γH2AX, p53mt cancer cells. Type of data set: cell-based, human. To be noted: p53mt / p53-deficient cells. The method, then:
(§3) Cells were grown on glass coverslips (22×22 mm) and treated with inhibitors for various times, then fixed with 4% PFA and permeabilized with 0.05% Triton X-100. For γH2AX staining samples were blocked with 3% milk in PBS for 30 min at room temperature (RT), and then incubated for 1 h with antibodies to γH2AX (1:400) in 1% milk/PBS followed by incubation with Texas red-conjugated secondary antibody (1:500) for 30 min at RT. For evaluation of genomic EdU, cells were grown on glass coverslips, and then pulse-labeled with EdUrd as described for flow cytometry. Cells were fixed at various times with 4% PFA and permeabilized with 0.05% Triton X-100, and then EdU was labeled with Cy3 azide using ‘click-it’ reaction as described above. DNA was labeled with Hoechst 33342 before mounting on glass slides. Fluorescence images were taken with a Plan Apochromat 60×/1.40 NA oil objective at ambient temperature using Nikon TE2000-E inverted microscope equipped with a charge-coupled device camera (CoolSNAP HQ; Photometrics). The images were acquired using MetaVue imaging software (v7.7.3, Molecular Devices). Experiments were repeated twice with representative images shown.
Immunoblotting: Tumor cells were seeded in a 6-well plate at 300,000 cells/well and treated with various reagents. […] Protein concentrations in lysates were quantitated and 15 μg of protein/lane were resolved on a 10% SDS-PAGE gel. […]

For data set [3], the system named is MDA-MB-231 cells. Kind of data set: EdU-removal assay / genomic EdU, MDA-MB-231. Type of data set: cell-based, human. As to the method: (§4) All samples were analyzed on an LSRFortessa Cytometer (BD Biosciences) running FACSDiva (Version 6.1.3), and the data were processed using FCS Express 7 (Version 7.04.0016). For the EdUrd pulse experiments, 300,000 cells per well were seeded in a 6-well plate, and the following day media was replaced with base media containing 5% dialyzed FBS. Cells were then incubated with 10 μM EdUrd for two hours, while untreated cells served as the negative control. Following the two-hour pulse, cells were washed twice with DPBS and the media was replenished. Collection of cells began at t=0 hr up to t=72 hr post EdUrd-pulse. Cells were collected using standard trypsinization, washed in 1% BSA in DPBS, and fixed in 4% paraformaldehyde for 15 minutes. Cells underwent two more washes in 1% BSA/DPBS before being permeabilized in 1× saponin buffer. […] Samples were sorted using a BD LSRFortessa cytometer running FACSDiva (Version 6.1.3), and the data were analyzed using ModFit Lt software (Version 5.0.9). […]
(§5) Cells were grown on glass coverslips (22×22 mm) and treated with inhibitors for various times, then fixed with 4% PFA and permeabilized with 0.05% Triton X-100. […] Fluorescence images were taken with a Plan Apochromat 60×/1.40 NA oil objective at ambient temperature using Nikon TE2000-E inverted microscope equipped with a charge-coupled device camera (CoolSNAP HQ; Photometrics). […]

In the next data set the test system is γH2AX in MCF10A cells. Put plainly: DNA damage marker γH2AX, p53wt MCF10A. Type of data set: cell-based, human. As to the method:
as §3
(§6) Immunoblotting: Tumor cells were seeded in a 6-well plate at 300,000 cells/well and treated with various reagents. Whole-cell lysates were prepared using NP40 lysis buffer containing PMSF, Na-Orthovanadate, and protease inhibitor cocktail. Snap-frozen tumor tissues were ground and suspended in NP40 lysis buffer. Protein concentrations in lysates were quantitated and 15 μg of protein/lane were resolved on a 10% SDS-PAGE gel. Proteins were transferred onto a nitrocellulose membrane in 10% Methanol-SDS buffer and probed with appropriate antibodies. ECL reagent was used to visualize immune-complexes on radiographic films.

The subject of data set [4] is MDA-MB-231 cells. Put plainly: Cytotoxicity assay (methylene blue), MDA-MB-231. It counts as cell-based, human. To be noted: single agent, read-out: IC50, cytotoxicity, drug alone. As to the method: as §1, §2
Data set [5] is described as follows: Cytotoxicity assay (methylene blue), MCF10A. It counts as cell-based, human. To be noted: human, MCF10A cells (p53wt), single agent, read-out: IC50, cytotoxicity, drug alone. As to the method: as §1, §2
For data set [6], the system named is p53-p21 signaling in MCF10A cells. Kind of data set: p53-p21 signaling immunoblot, MCF10A. It counts as cell-based, human. To be noted: for p53-p21 signaling response: MCF10A (p53wt). As to the method:
as §6

Data set [7] deals with thymidylate synthase (TS) (Homo sapiens, UniProt P04818). To be noted: cited from earlier work.
The next data set has as its system MIAPACA-2 tumors. Kind of data set: MIAPACA-2 subcutaneous pancreatic cancer xenograft in mice. Type of data set: in vivo. To be noted: 50 mg/kg each drug, oral gavage, 5 days-on, 2 days-off. The method, then: Tumor growth was monitored by measuring tumor diameters with electronic calipers twice/week. […] Drugs were given at 50 mg/kg by oral gavage on schedule 5-days-on and 2-days-off. At the endpoint, mice were euthanized and subjected to necropsy and organ collection. Tumor tissues were collected for RNA and protein analyses by snap-freezing in liquid nitrogen. Blood was collected for CBC by cardiac puncture.
Statistical significance was achieved when P<0.05.

Another data set deals with MDA-MB-231 tumors. It counts as in vivo. To be noted: 5 days-on, 2 days-off. As to the method:
Tumor growth was monitored by measuring tumor diameters with electronic calipers twice/week. Volumes were calculated using the formula (length)×(width)2/2. Mouse weights were measured twice/week. […] Drugs were given at 50 mg/kg by oral gavage on schedule 5-days-on and 2-days-off. At the endpoint, mice were euthanized and subjected to necropsy and organ collection. Tumor tissues were collected for RNA and protein analyses by snap-freezing in liquid nitrogen. Blood was collected for CBC by cardiac puncture.
Statistical significance of data comparisons were determined using the Student's unpaired t-test with a two-tailed distribution. Statistical significance was achieved when P<0.05. […]

The test system of data set [8] is p53-p21 signaling in MDA-MB-231 cells. Kind of data set: p53-p21 signaling immunoblot, MDA-MB-231. To be noted: MDA-MB-231 (p53mt). Type of data set: cell-based, human. The method, then:
as §6

Data set [9] deals with MDA-MB-231 cells. Put plainly: Cell cycle analysis by flow cytometry, p53mt cancer cells. Type of data set: cell-based, human. As to the method: as §4
(§7) Flow cytometry: All samples were analyzed on an LSRFortessa Cytometer (BD Biosciences) running FACSDiva (Version 6.1.3), and the data were processed using FCS Express 7 (Version 7.04.0016). […] Samples were sorted using a BD LSRFortessa cytometer running FACSDiva (Version 6.1.3), and the data were analyzed using ModFit Lt software (Version 5.0.9). […]
For orientation: In flow cytometry, cells or beads pass a laser one at a time.

The test system of data set [10] is MCF10A cells. Put plainly: Cell cycle analysis by flow cytometry, MCF10A. It counts as cell-based, human. To be noted: MCF10A (p53wt). As to the method:
as §4, §7

For data set [11], the system named is BRCA1-deficient cell lines. To be noted: cited from earlier work.
Data set [12] deals with MCF10A cells. Kind of data set: Cytotoxicity assay (methylene blue), MCF10A. Type of data set: cell-based, human. To be noted: MCF10A (p53wt), single agent; read-out: IC50, cytotoxicity, drug alone. The method, then: as §1, §2
The test system of data set [13] is PARylation activity in MCF10A and MDA-MB-231 cells. Put plainly: Inhibition of PARylation activity in cell culture (immunoblot). It counts as cell-based, human. To be noted: 24 hrs. The method, then:
as §6

For data set [14], the system named is MCF10A cells. Put plainly: EdU-removal assay, MCF10A. Type of data set: cell-based, human. To be noted: 0.5 μM Olaparib after 2 hr EdU pulse. The method, then:
as §4, §5

Setting [15] is: Homo sapiens, MDA-MB-231, MDA-MB-231 (p53mt).

Molecules are shown by their SMILES. Where “and” joins values, the source holds several entries; their conditions need not be identical. Identical values can stand only once. Entries after “also recorded” stand apart in the source; their conditions may differ. Like-named read-outs stand apart in the source and are kept apart here.

Sequence of thymidylate synthase (TS) (P04818 whole entry, species assumed): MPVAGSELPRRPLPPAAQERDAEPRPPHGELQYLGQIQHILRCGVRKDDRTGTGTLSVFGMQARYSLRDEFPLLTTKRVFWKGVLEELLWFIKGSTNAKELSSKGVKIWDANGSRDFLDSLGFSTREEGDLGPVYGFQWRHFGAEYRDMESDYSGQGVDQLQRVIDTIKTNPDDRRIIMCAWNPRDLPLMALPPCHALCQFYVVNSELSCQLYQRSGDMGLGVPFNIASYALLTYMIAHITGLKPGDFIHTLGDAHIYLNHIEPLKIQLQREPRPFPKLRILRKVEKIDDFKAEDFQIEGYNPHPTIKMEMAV

Consider `O=c1[nH]cc(F)c(=O)[nH]1` [5FU, 5-fluoro-uracil], for which, in data set [1] (olaparib 0.5 μM; tested cell lines), the “Cooperation of 5FU with olaparib in cytotoxicity” value is “did not cooperate with olaparib; also recorded: does not enhance cytotoxicity”.

As for `C#Cc1cn([C@H]2C[C@H](O)[C@@H](CO)O2)c(=O)[nH]c1=O` [EdUrd, 5-ethynyl-2′-deoxy-uridine], the results for the “γH2AX (DNA damage) response” value (in [2]; in the data set with γH2AX in MCF10A cells) were “continued accumulation of DNA damage signal” and “transient increase of γH2AX levels”, respectively. In addition, the “Increase of EdU+ fraction after EdUrd-pulse” value in the data set on MDA-MB-231 cells [3] (24 hrs after 2 hr EdUrd pulse, flow cytometry) was roughly 25%.

Consider `O=c1[nH]c(=O)n([C@H]2C[C@H](O)[C@@H](CO)O2)cc1F` [FdUrd, 5-fluoro-2′-deoxyuridine], for which the IC50 – broadly, the concentration that inhibits the measured activity by half – with MDA-MB-231 cells [4] (setting [15]) was found to be 5.5 µM. Further, the “γH2AX (DNA damage) response” value in [2] is “induced by 24 hrs and remained at high levels at 48 hrs”; in the data set on γH2AX in MCF10A cells, “induced transiently at 6 hrs of FdU exposure and declined by 48 hrs”. In addition, in data set [5], the IC50 at 24 h came to 1.6 µM. For the same compound, the p53-p21 signaling response entry in data set [6] is on record as “induced p53-p21 signaling”.

Turning to `COc1ccc(C2=N[C@@H](c3ccc(Cl)cc3)[C@@H](c3ccc(Cl)cc3)N2C(=O)N2CCNC(=O)C2)c(OC(C)C)c1` [Nutlin-3A], the “γH2AX (DNA damage) response” value in the data set with γH2AX in MCF10A cells was “did not induce DNA damage γH2AX marker”.

On to `O=c1[nH]c(=O)n([C@H]2C[C@H](O)[C@@H](CO)O2)cc1C(F)(F)F` [TFT, 5-trifluoro-2′-deoxythymidine], for which the “Inhibition of TS” value in data set [7] is 0.38 nM.

As for `O=C(c1cc(Cc2n[nH]c(=O)c3ccccc23)ccc1F)N1CCN(C(=O)C2CC2)CC1` [olaparib], the half-maximal inhibitory concentration (IC50) in the data set on MDA-MB-231 cells [4] (setting [15]) is 17.6 µM; in the data set on MDA-MB-231 cells [4] (MDA-MB-231 (p53mt)) it was 17.4 µM; in data set [1] (Homo sapiens, read-out: IC50 for cancer cells, PARPi alone) it was 16 to 24 µM; in data set [11], less than 1000 nM; with MCF10A cells [12], 15.3 µM. In addition, the “Median survival (time-to-arrive at 500 mm3 tumor size)” value in the data set with MIAPACA-2 tumors is reported as 21 days. The “Median survival (time-to-arrive at 300 mm3 tumor size)” value with MDA-MB-231 tumors (50 mg/kg each drug, oral gavage) worked out at 21 days. In addition, the Tumor growth entry in the data set with MDA-MB-231 tumors (50 mg/kg oral gavage) was “did not affect tumor growth”. For the same compound, the p53-p21 signaling response entry is reported as “p21 was not regulated; also recorded: no response was observed” in data set [8] and “induced p53-p21 signaling” in [6]. The values for the Cell cycle effect result in the data set with MDA-MB-231 cells [9] and in the data set on MCF10A cells [10] were “increased G2 fraction at the expense of S phase” and “increased G1-population”, respectively. Moreover, the “Effect on removal of EdU” value is given as “had no effect” with MDA-MB-231 cells [3] (MDA-MB-231, 0.5 μM Olaparib after 2 hr EdU pulse) and “significantly delayed removal of EdU” in the data set on MCF10A cells [14]. The IC50 at 24 h in data set [5] was 14.5 µM. Further, the “Concentration activating p53-p21 signaling” value in data set [6] (MCF10A) is recorded as 200 nM. For the same compound, the “Concentration inducing p53-p21 signaling” value in data set [6] (MCF10A, 24 hrs) lay in the range of 0.2 to 0.5 µM. The “Concentration inhibiting PARylation activity in cells” value in data set [13] is 100 to 500 nM and 50 to 100 nM.

On to `Cn1ncnc1[C@H]1c2n[nH]c(=O)c3cc(F)cc(c23)N[C@@H]1c1ccc(F)cc1` [talazoparib], for which the IC50 in data set [1] (Homo sapiens; read-out: IC50 for cancer cells, PARPi alone) lay in the range of 2 to 4 µM. Also, in the data set on MDA-MB-231 cells [9], the Cell cycle effect entry is recorded as “increased G2 fraction at the expense of S phase”. For the same compound, the p53-p21 signaling response result in data set [6] is “p21 induction was observed only in p53wt cells”. The “Concentration inhibiting PARylation activity in cells” value in data set [13] stood at 50 nM.

The values above are taken from US12551498B2, “Treatment of P53-deficient cancers” (Health Research, Inc., priority 2019, dated 2026).
